The text below walks through data of patent US9682925B2, “Cyclopropaneamine compound” (TAKEDA PHARMACEUTICAL COMPANY LIMITED, priority 2011, dated 2017).

Structures are written as SMILES.

Format in all cases: biochemical
The target of test [1] is T1, human LSD1(171-852) (Homo sapiens, UniProt O60341).
T1 construct: to give hLSD1(171-852) purified product; made in house; host or cells: Escherichia coli C43(DE3) pLysS
Briefly: Measurement of LSD1 inhibitory activity (time-resolved fluorescence, biotin-histone H3 mono methylated K4 peptide). The following applies: read-out: LSD1 IC50 value. On the procedure:
When the turbidity reached 600 Klett units, the culture temperature was changed to 16° C., IPTG having a final concentration of 0.5 mM was added to induce expression, and the cells were cultured further for 21 hr. The culture medium was centrifuged at 9,000 g for 10 min, and Escherichia coli pellets were recovered.
Escherichia coli pellets in 9 L of the culture medium were suspended in 1340 mL of an extraction buffer (PBS, 5% (V/V) Glycerol), and 6700 units of Benzonase (Merck) were added. Using Branson ultrasonic disintegrator, the suspension was disrupted by ultrasonication for 3 min, and centrifuged at 33,000 g for 20 min, and the supernatant was recovered.
(5) Measurement of LSD1 Inhibitory Activity
After reaction at room temperature for 20 min, 1 mM 2-PCPA solution (5 μL) was added to terminate the reaction. A detection solution (800 mM potassium fluoride, 0.1% BSA) containing europium-labeled antihistone H3 antibody (Wako Pure Chemical Industries, Ltd.) and Streptavidin-XL665 (Cisbio) was further added by 5 μL, and the mixture was left standing for 60 min. A time-resolved fluorescence (excitation 320 nm, emission 615 nm, 665 nm) was measured by Envision (PerkinElmer). The LSD1 inhibitory rate (%) of the test compound was calculated by the following formula. inhibitory rate (%)=(1−(test compound count−blank)÷(control−blank)×100
The count of the LSD1 enzyme reaction mixture under compound non-addition conditions is indicated as control, and the count under compound non-addition and LSD1 enzyme non-addition conditions is indicated as blank.

In test [2] the target is T2, MAO-B (Homo sapiens, UniProt P27338).
T2 construct: purchased Sigma-Aldrich Co. LLC
T2 sequence (P27338 1-520): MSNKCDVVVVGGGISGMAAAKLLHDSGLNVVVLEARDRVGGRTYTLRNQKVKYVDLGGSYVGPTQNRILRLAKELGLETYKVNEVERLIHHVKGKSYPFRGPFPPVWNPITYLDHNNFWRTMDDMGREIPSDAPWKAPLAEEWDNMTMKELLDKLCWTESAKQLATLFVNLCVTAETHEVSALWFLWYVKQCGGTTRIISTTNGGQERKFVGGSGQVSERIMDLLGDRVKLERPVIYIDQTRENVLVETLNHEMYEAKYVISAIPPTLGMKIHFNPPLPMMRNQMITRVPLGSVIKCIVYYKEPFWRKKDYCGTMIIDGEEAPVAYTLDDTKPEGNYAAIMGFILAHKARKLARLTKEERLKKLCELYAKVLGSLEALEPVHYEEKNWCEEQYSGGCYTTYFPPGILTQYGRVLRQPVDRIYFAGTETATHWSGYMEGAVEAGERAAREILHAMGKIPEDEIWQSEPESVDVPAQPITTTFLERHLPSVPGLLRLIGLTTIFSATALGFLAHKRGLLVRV
Briefly: Measurement of MAO-B inhibitory activity (MAO-Glo Assay). On the procedure:
(2) Measurement of MAO-B Inhibitory Activity
The MAO-B inhibitory activity evaluation described below followed the protocol of MAO-Glo (registered trademark) Assay of Promega KK.
(§1) A test compound dissolved in 4% DMSO was added by 12.5 μL to 25 μL reaction solution (100 mM HEPES (pH 7.5), 5% glycerol, 10% DMSO) containing 400 ng of MAO-B enzyme (Sigma-Aldrich Co. LLC.), and the mixture was reacted at room temperature for 10 min. MAO substrate (Promega KK) (16 μM) was added by 12.5 μL to start the reaction. After reaction at room temperature for 60 min, Luciferine detection reagent (Promega KK) (50 μL) was added to terminate the reaction. After reaction at room temperature for 20 min with stirring, the luminescence was measured by Envision (PerkinElmer). The MAO-B inhibitory rate (%) of the test compound was calculated by the following formula. inhibitory rate (%)=(1−(test compound count−blank)÷(control−blank)×100
The count of the MAO-B enzyme reaction mixture under compound non-addition conditions is indicated as control, and the count under compound non-addition and MAO-B enzyme non-addition conditions is indicated as blank.

For test [3], the target named is T3, MAO-A (Homo sapiens, UniProt P21397).
T3 construct: purchased Sigma-Aldrich Co. LLC
T3 sequence (P21397 1-527): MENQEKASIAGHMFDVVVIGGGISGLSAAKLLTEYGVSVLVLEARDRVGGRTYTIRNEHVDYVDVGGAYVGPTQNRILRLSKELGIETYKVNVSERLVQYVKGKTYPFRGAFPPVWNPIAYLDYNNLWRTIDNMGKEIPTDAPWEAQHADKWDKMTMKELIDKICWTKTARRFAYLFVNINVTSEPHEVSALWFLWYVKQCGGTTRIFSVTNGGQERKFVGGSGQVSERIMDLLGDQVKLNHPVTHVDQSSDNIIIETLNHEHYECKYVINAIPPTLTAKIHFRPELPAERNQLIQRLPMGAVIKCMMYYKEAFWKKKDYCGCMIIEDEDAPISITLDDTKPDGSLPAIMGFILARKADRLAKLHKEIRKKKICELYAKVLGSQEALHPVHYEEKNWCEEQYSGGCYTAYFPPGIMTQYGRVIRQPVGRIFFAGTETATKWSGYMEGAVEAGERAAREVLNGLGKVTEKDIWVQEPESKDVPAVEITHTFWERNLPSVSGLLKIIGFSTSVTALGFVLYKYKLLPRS
Briefly: Measurement of MAO-A inhibitory activity (MAO-Glo Assay). On the procedure: (1) Measurement of MAO-A Inhibitory Activity
The MAO-A inhibitory activity evaluation described below followed the protocol of MAO-Glo (registered trademark) Assay of Promega KK.
as §1, with “glycerol)” for “glycerol, 10% DMSO)”, “MAO-A” for “MAO-B”, “(160” for “(16”
The count of the MAO-A enzyme reaction mixture under compound non-addition conditions is indicated as control, and the count under compound non-addition and MAO-A enzyme non-addition conditions is indicated as blank.

For the molecule `O=C(Nc1cccc(C(=O)Nc2ccc([C@@H]3C[C@H]3NCc3ccccc3)cc2)c1)c1ccccc1` (relative stereo) [Example 31, N-{4-[trans-2-(benzylamino)cyclopropyl]phenyl}-3-[(phenylcarbonyl)amino]benzamide], the IC50 (usually the concentration that gives 50% inhibition) was less than 0.1 µM in test [1], greater than 10 µM in test [2] and greater than 10 µM in test [3].
For `O=C(Nc1ccc([C@@H]2C[C@H]2NCc2ccccc2)cc1)c1cccc(N2CCCCC2)c1` (relative stereo) [Example 32, N-{4-[trans-2-(benzylamino)cyclopropyl]phenyl}-3-piperidin-1-ylbenzamide], the figures for the IC50 in test [1], in test [2] and in test [3] were less than 0.1 µM, greater than 10 µM and greater than 10 µM, respectively.
With `O=C(Nc1ccc([C@@H]2C[C@H]2NCc2ccccc2)cc1)c1cccc(N2CCCCC2=O)c1` (relative stereo) [Example 33, N-{4-[trans-2-(benzylamino)cyclopropyl]phenyl}-3-(2-oxopiperidin-1-yl)benzamide], the IC50 is less than 0.1 µM in test [1], greater than 10 µM in test [2] and greater than 10 µM in test [3].
Consider `O=C(Nc1ccc([C@@H]2C[C@H]2NCc2ccccc2)cc1)c1cccc(CCc2ccccc2)c1` (relative stereo) [Example 34, N-{4-[trans-2-(benzylamino)cyclopropyl]phenyl}-3-(2-phenylethyl)benzamide], for which the IC50 in test [1] is 0.19 µM; in test [2], greater than 10 µM; in test [3], greater than 10 µM.
For `O=C(Nc1ccc([C@@H]2C[C@H]2NCc2ccccc2)cc1)c1ccc(-c2ccccc2)cc1` (relative stereo) [Example 35, N-{4-[trans-2-(benzylamino)cyclopropyl]phenyl}biphenyl-4-carboxamide], the IC50 was 0.13 µM in test [1], greater than 10 µM in test [2] and 1.3 µM in test [3].
For `O=C(Nc1ccc([C@@H]2C[C@H]2NCc2ccccc2)cc1)c1cccc(-c2ccccc2)c1` (relative stereo) [Example 36, N-{4-[trans-2-(benzylamino)cyclopropyl]phenyl}biphenyl-3-carboxamide], the IC50 is less than 0.1 µM in test [1], greater than 10 µM in test [2] and 4.6 µM in test [3].
On the same counts, the results for `O=C(Nc1ccc([C@@H]2C[C@H]2NCc2cccnc2)cc1)c1ccc(-c2ccccc2)cc1` (relative stereo) [Example 38, N-(4-{trans-2-[(pyridin-3-ylmethyl)amino]-cyclopropyl}-phenyl)biphenyl-4-carboxamide] are less than 0.1 µM, greater than 10 µM and 9.1 µM.
In the case of `O=C(Nc1ccc([C@@H]2C[C@H]2NCc2ccncc2)cc1)c1ccc(-c2ccccc2)cc1` (relative stereo) [Example 39, N-(4-{trans-2-[(pyridin-4-ylmethyl)amino]-cyclopropyl}-phenyl)biphenyl-4-carboxamide], the IC50 in test [1] is less than 0.1 µM; in test [2], greater than 10 µM; in test [3], greater than 10 µM.
On to `COc1cccc(CN[C@@H]2C[C@H]2c2ccc(NC(=O)c3ccc(-c4ccccc4)cc3)cc2)c1` (relative stereo) [Example 41, N-(4-{trans-2-[(3-methoxybenzyl)-amino]cyclo-propyl}phenyl)-biphenyl-4-carboxamide], for which the IC50 was determined as 0.11 µM in test [1], 5.1 µM in test [2] and 5.8 µM in test [3].
On the same counts, the results for `O=C(Nc1ccc([C@@H]2C[C@H]2NCc2ccc3c(c2)OCO3)cc1)c1ccc(-c2ccccc2)cc1` (relative stereo) [Example 42, N-(4-{trans-2-[(1,3-benzodioxol-5-ylmethyl)amino]-cyclopropyl}-phenyl)biphenyl-4-carboxamide] are less than 0.1 µM, greater than 10 µM and greater than 10 µM.
On the same counts, the results for `COc1ccc(CN[C@@H]2C[C@H]2c2ccc(NC(=O)c3ccc(-c4ccccc4)cc3)cc2)cc1` (relative stereo) [Example 43, N-(4-{trans-2-[(4-methoxybenzyl)-amino]cyclo-propyl}phenyl)-biphenyl-4-carboxamide] are 0.11 µM, 4.7 µM and 3.3 µM.
For `NCCN[C@@H]1C[C@H]1c1ccc(NC(=O)c2ccc(-c3ccccc3)cc2)cc1` (relative stereo) [Example 44, N-(4-{trans-2-[(2-aminoethyl)-amino]cyclo-propyl}phenyl)-biphenyl-4-carboxamide], the IC50 in test [1] is less than 0.1 µM; in test [2] it was 9.3 µM; in test [3] it was greater than 10 µM.
On the same counts, the results for `O=C(Nc1ccc([C@@H]2C[C@H]2NC2CCCCCCC2)cc1)c1ccc(-c2ccccc2)cc1` (relative stereo) [Example 45, N-{4-[trans-2-(cyclooctyl-amino)cyclo-propyl]phenyl}-biphenyl-4-carboxamide] are 0.29 µM, greater than 10 µM and greater than 10 µM.
On the same counts, the results for `COc1ccc(CN[C@@H]2C[C@H]2c2ccc(NC(=O)c3ccc(-c4ccccc4)cc3)cc2)cc1OC` (relative stereo) [Example 46, N-(4-{trans-2-[(3,4-dimethoxy-benzyl)amino]cyclo-propyl}phenyl)-biphenyl-4-carboxamide] are less than 0.1 µM, greater than 10 µM and greater than 10 µM.
On the same counts, the results for `CC(N[C@@H]1C[C@H]1c1ccc(NC(=O)c2ccc(-c3ccccc3)cc2)cc1)c1ccccc1` (relative stereo) [Example 47, N-(4-{trans-2-[(1-phenylethyl)amino]-cyclopropyl}phenyl)-biphenyl-4-carboxamide] are 0.19 µM, 1.7 µM and 1.8 µM.
